Data taken from patent EP0603030A2, “Antiviral antibiotic BU-4628V and preparation thereof” (Bristol-Myers Squibb Company, priority 1992, dated 1994).
Like-named read-outs stand apart in the source and are kept apart here. Positions of bridges follow the written chain, without caps; N, C: chain ends. Residues, ends and D or L forms follow the SMILES beside them.

Tests used:
[1] = test system: herpes simplex virus type 1 (HSV-1); test: Anti-HSV activity, inhibition of virus-induced cytopathic effect in Vero cells; format: cell-based; conditions: HSV-1 KOS strain, 72 hours at 37°C, 50% inhibition of cytopathic effect
Description: (§1) The in vitro antiviral activity of BU-4628V was assessed against the herpes simplex virus type 1 (HSV-1) using the KOS strain. The assay was done according to the reported protocol of C. McLaren et al. in Antiviral Research, 3, 223-234, (1986) with minor modification. Briefly, 50 µl of Eagle's MEM medium containing BU-4628V and then 200 µl of the Vero cell suspension (2 X 10⁴ cells/200 µl) were added to a well of a 96-well microtiter plate. To the well, 50µl of medium containing approximately 30 times of the 50% tissue culture infectious dose (50% TCID) of virus was added. In a parallel experiment, the same set of cells without virus infection was prepared, which was for the determination of cytotoxicity of the sample. After 72 hours incubation at 37°C, the inhibition degree of virus-induced cytopathic effect and cytotoxicity by the sample were determined, respectively. The ID₅₀ is expressed as the concentration of a compound showing 50% growth inhibition of the cytopathic effect and the TD₅₀ as the concentration of a compound showing 50% growth inhibition of the cells in the absence of virus. Acyclovir was used as the reference compound for anti-HSV activity in the assay.

[2] = Cytotoxicity in Vero cells without virus infection; format: cell-based; conditions: Vero cells in the absence of virus, 72 hours at 37°C, 50% growth inhibition, read-out: TD₅₀
Description: as §1

HIV-1 RF = test: Anti-HIV activity, XTT assay in CEM-SS cells; format: cell-based, human immunodeficiency virus; conditions: HIV-1 RF strain, read-out: IC₅₀
Source text: (§2) The antiviral effect is expressed as the inhibitory concentration of a compound which reduces the number of viruses of the infected culture to 50% of that of the drug - untreated, control culture (IC₅₀). The cytotoxicity is expressed as the concentration of a compound which yields 50% of the number of viable cells of the untreated control cultures (IC₅₀).

HIV-1 IIIb = test: Anti-HIV activity, XTT assay in CEM-SS cells; format: cell-based, human immunodeficiency virus; conditions: HIV-1 IIIb strain, read-out: IC₅₀
Source text: as §2

HIV-2 CBL-20 = test: Anti-HIV activity, XTT assay in CEM-SS cells; format: cell-based, human immunodeficiency virus; conditions: HIV-2 CBL-20 strain, read-out: IC₅₀
Source text: The antiviral effect is expressed as the inhibitory concentration of a compound which reduces the number of viruses of the infected culture to 50% of that of the drug - untreated, control culture (IC₅₀).

[3] = Cytotoxicity in CEM-SS cells (XTT assay); format: cell-based; conditions: human, concentration yielding 50% of viable cells of untreated control, read-out: cytotoxicity IC₅₀
Source text: as §2

CEM-SS cells [4] = test: Cytotoxicity in CEM-SS cells (XTT assay); format: cell-based; conditions: result in words
Source text: as §2

S. typhi 901 = format: cell-based; conditions: 901, 18 h, pH 7
Solubility in solvents = format: physicochemical
Source text: The antiviral antibiotic BU-4628V was isolated as a white amorphous powder.

Vero cell = test: Cytotoxicity in Vero cells without virus infection; format: cell-based; conditions: Vero cells in the absence of virus, 72 hours at 37°C; 50% growth inhibition
Description: as §1

[5] = test system: human immunodeficiency virus; test: Anti-HIV activity, XTT assay in CEM-SS cells (strain not stated); format: cell-based; conditions: Human immunodeficiency virus 1, read-out: IC₅₀
CEM-SS cells [6] = test system: CEM-SS cells
Source text: as §2

CC[C@H](C)[C@@H]1NC(=O)CNC(=O)[C@H](CC(C)C)NC(=O)[C@@H]2CSSC[C@@H]3NC(=O)CNC(=O)[C@H](C)NC(=O)[C@H](Cc4ccccc4)NC(=O)[C@H](CC(=O)N2)NC(=O)[C@H](CC(N)=O)NC(=O)[C@H](CSSC[C@@H](C(=O)N[C@@H](Cc2ccccc2)C(=O)N[C@@H](Cc2c[nH]c4ccccc24)C(=O)O)NC(=O)[C@H](C(C)C)NC(=O)[C@H]([C@@H](C)CC)NC(=O)[C@H](C)NC(=O)[C@H](Cc2ccc(O)cc2)NC(=O)CNC3=O)NC(=O)[C@H](CO)NC(=O)CNC1=O [BU-4628V] (CLGIGSCNDFAGCGYAIVCFW-OH; disulfide 1-13, 7-19; lactam N-9; C-terminus assumed)
ID₅₀ [1]: 27 µg/mL
CC50 at 72 h [2]: > 100 µg/mL
IC50 (HIV-1 RF): 140 nM
IC50 (HIV-1 IIIb): 920 nM
IC50 (HIV-2 CBL-20): 320 nM
CC50 [3]: 26000 to 46000 nM
cytotoxicity (CEM-SS cells [4]): very weak cytotoxicity
MIC (S. typhi 901): >100 µg/mL
solubility (Solubility in solvents; in alkaline water): slightly soluble
solubility (Solubility in solvents; in benzene): insoluble
solubility (Solubility in solvents; in chloroform): insoluble
solubility (Solubility in solvents; in dimethyl sulfoxide): soluble
solubility (Solubility in solvents; in dimethylformamide): soluble
solubility (Solubility in solvents; in ethanol): soluble
solubility (Solubility in solvents; in ethyl acetate): insoluble
solubility (Solubility in solvents; in methanol): soluble
solubility (Solubility in solvents; in n-hexane): insoluble
solubility (Solubility in solvents; in petroleum ether): insoluble
solubility (Solubility in solvents; in water): insoluble

Nc1nc2c(ncn2COCCO)c(=O)[nH]1 [Acyclovir]
ID₅₀ [1]: 0.23 µg/mL
TD₅₀ (Vero cell): >100 µg/mL

O=c1[nH]cnc2c1ncn2[C@H]1CC[C@@H](CO)O1 [ddI, 2',3'-Dideoxyinosine]
IC50 [5]: 1000 to 2000 nM
cytotoxicity (CEM-SS cells [6]): very weak cytotoxicity
